SMILES strings stand for the structures.

Sequence of human P2X7 (Q99572 whole entry): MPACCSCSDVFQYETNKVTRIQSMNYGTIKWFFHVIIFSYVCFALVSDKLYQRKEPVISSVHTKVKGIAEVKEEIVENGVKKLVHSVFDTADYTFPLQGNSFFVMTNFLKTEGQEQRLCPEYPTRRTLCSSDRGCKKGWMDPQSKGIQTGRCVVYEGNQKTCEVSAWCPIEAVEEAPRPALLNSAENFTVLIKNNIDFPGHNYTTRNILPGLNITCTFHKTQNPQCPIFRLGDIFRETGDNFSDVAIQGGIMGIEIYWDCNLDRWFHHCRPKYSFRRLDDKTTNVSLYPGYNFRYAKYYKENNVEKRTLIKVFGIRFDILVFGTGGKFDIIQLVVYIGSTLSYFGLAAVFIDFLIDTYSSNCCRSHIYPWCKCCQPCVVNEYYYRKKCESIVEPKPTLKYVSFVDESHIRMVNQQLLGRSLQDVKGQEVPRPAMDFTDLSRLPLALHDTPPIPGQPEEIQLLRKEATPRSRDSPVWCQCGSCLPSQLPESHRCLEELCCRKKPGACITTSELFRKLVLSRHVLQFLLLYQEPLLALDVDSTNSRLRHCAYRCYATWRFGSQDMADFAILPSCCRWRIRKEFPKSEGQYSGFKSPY

One assay concerns the target human P2X7 (Homo sapiens (Human), UniProt Q99572). Nature of the assay: P2X7 antagonism in human PBMCs (IL-1β release after LPS + Bz-ATP, ELISA). In kind it is cell-based. As to conditions: 10 μM test compound, human PBMCs, LPS + Bz-ATP.
Experimental: P2X7 Antagonism in Human Peripheral Blood Mononuclear Cells (PBMCs) and Human Whole Blood.
Human blood was collected using a blood donor program. PBMCs were isolated from blood using a Ficoll density gradient technique. Briefly, blood was laid on Ficoll solution and centrifuged at RT for 20 minutes at 2000 rpm. The buffy layer (between red blood cells and plasma) was carefully collected by aspiration, washed with PBS and centrifuged again at 1500 rpm for 15 minutes. The resulting cell pellet was washed and plated on 96 well-plates for experiments. For the Human Whole Blood experiments, 150 μl of human blood was platted on 96 well-plates. Lipopolysaccharide (LPS) (30 ng/ml) was added to each well and incubated for 1 hour. Test compounds were then added and incubated for 30 minutes. The P2X7 agonist, 2′(3′)-O-(4-benzoylbenzoyl) adenosine 5′ triphosphate (Bz-ATP) was then added at a final concentration of 0.5 mM (PBMC) or 1 mM (blood). Cells were incubated for an additional 1.5 hours. At that point, supernatant was collected and stored for IL-1β assay using manufacturer's protocol for enzyme-linked immunosorbent assay (ELISA). Data was expressed as percent control, where control is defined as the difference in IL-1β release in LPS+Bz-ATP samples and LPS only samples. Data was plotted as response (% control) versus concentration to generate IC50 values. […] Data are analyzed and graphed on Graphpad Prism 5. For analysis, each concentration point is averaged from triplicate values and the averaged values are plotted on Graphpad Prism.
With `Cc1ccnc(-n2nnc3c2CCN(C(=O)c2cccc(C(F)(F)F)c2Cl)[C@H]3C)n1` (single isomer, unassigned) [Example 439, (S*)-(2-chloro-3-(trifluoromethyl)phenyl)(4-methyl-1-(4-methylpyrimidin-2-yl)-6,7-dihydro-1H-[1,2,3]triazolo[4,5-c]pyridin-5(4H)-yl)methanone], the “PBMC 10 μM (% control)” value turned out to be 1.2 % control.

Staying with this assay, now noted: human PBMCs, test compound 1 μM.
Regarding `O=C(c1ccnc(Cl)c1Cl)N1CCc2c(-c3ccccc3)n[nH]c2C1` [Example 104, 6-[(2,3-Dichloropyridin-4-yl)carbonyl]-3-phenyl-4,5,6,7-tetrahydro-1H-pyrazolo[3,4-c]pyridine], the “PBMC 1 μM (% control)” value stood at 8.9 % control.

On to `Cn1nc2c(c1-c1ccc(F)cc1)CCN(C(=O)c1cccc(Cl)c1Cl)C2` [Example 326, (2,3-dichlorophenyl)(3-(4-fluorophenyl)-2-methyl-4,5-dihydro-2H-pyrazolo[3,4-c]pyridin-6(7H)-yl)methanone], for which the “PBMC 1 μM (% control)” value came out at 92.0 % control.

Regarding `O=C(c1cccc(C(F)(F)F)c1Cl)N1C=Cc2c(nnn2-c2cnccn2)C1` [Example 89, 5-{[2-Chloro-3-(trifluoromethyl)phenyl]carbonyl}-1-pyrazin-2-yl-4,5-dihydro-1H-[1,2,3]triazolo[4,5-c]pyridine], the “PBMC 1 μM (% control)” value is −1.5 % control.

Staying with this assay, now noted: human PBMCs, test compound 10 μM.
Turning to `CC1Cc2c(nnn2-c2ncc(F)cn2)CN1C(=O)c1cccc(Cl)c1Cl` (centres unmarked) [Example 203, 5-[(2,3-Dichlorophenyl)carbonyl]-1-(5-fluoropyrimidin-2-yl)-6-methyl-4,5,6,7-tetrahydro-1H-[1,2,3]triazolo[4,5-c]pyridine], the “PBMC 10 μM (% control)” value amounted to 0.6 % control.

On to `C[C@@H]1c2nnn(-c3cnccn3)c2CCN1C(=O)c1ccc(F)c(Cl)c1Cl` (single isomer, unassigned) [Example 143, (R*)-(2,3-Dichloro-4-fluorophenyl)(4-methyl-1-(pyrazin-2-yl)-6,7-dihydro-1H-[1,2,3]triazolo[4,5-c]pyridin-5(4H)-yl)methanone], for which the “PBMC 10 μM (% control)” value is 58.0 % control.

As to `O=C(c1ccc(F)c(Cl)c1Cl)N1CCc2c(nnn2-c2ccccn2)C1` [Example 130, (2,3-Dichloro-4-fluorophenyl)(1-(pyridin-2-yl)-6,7-dihydro-1H-[1,2,3]triazolo[4,5-c]pyridin-5(4H)-yl)methanone], the “PBMC 10 μM (% control)” value came to 3.7 % control.

Consider `Cc1ccnc(-n2nnc3c2CCN(C(=O)c2cccc(Cl)c2Cl)[C@@H]3C)c1` (single isomer, unassigned) [Example 394, (R*)-(2,3-dichlorophenyl)(4-methyl-1-(4-methylpyridin-2-yl)-6,7-dihydro-1H-[1,2,3]triazolo[4,5-c]pyridin-5(4H)-yl)methanone], for which the “PBMC 10 μM (% control)” value is listed as 6.2 % control.

Consider `Cc1ccnc(-n2nnc3c2CCN(C(=O)c2cccc(Cl)c2Cl)C3C)n1` (centres unmarked) [Example 225, (2,3-dichlorophenyl)(4-methyl-1-(4-methylpyrimidin-2-yl)-6,7-dihydro-1H-[1,2,3]triazolo[4,5-c]pyridin-5(4H)-yl)methanone], for which the “PBMC 10 μM (% control)” value was −1.0 % control.

Turning to `Cc1cccc(-n2nnc3c2CCN(C(=O)c2cccc(Cl)c2Cl)[C@H]3C)n1` (single isomer, unassigned) [Example 390, (S*)-(2,3-dichlorophenyl)(4-methyl-1-(6-methylpyridin-2-yl)-6,7-dihydro-1H-[1,2,3]triazolo[4,5-c]pyridin-5(4H)-yl)methanone], the “PBMC 10 μM (% control)” value is reported as 6.5 % control.

Take `Cc1ccnc(-n2nnc3c2CCN(C(=O)c2cccc(C(F)(F)F)c2Cl)[C@@H]3C)c1` (single isomer, unassigned) [Example 185, (R*)-(2-chloro-3-(trifluoromethyl)phenyl)(4-methyl-1-(4-methylpyridin-2-yl)-6,7-dihydro-1H-[1,2,3]triazolo[4,5-c]pyridin-5(4H)-yl)methanone]: the “PBMC 10 μM (% control)” value is recorded as −3.7 % control.

As for `CC1c2nnn(-c3ncc(F)cn3)c2CCN1C(=O)c1cccc(C(F)(F)F)c1F` (centres unmarked) [Example 175, (2-fluoro-3-(trifluoromethyl)phenyl)(1-(5-fluoropyrimidin-2-yl)-4-methyl-6,7-dihydro-1H-[1,2,3]triazolo[4,5-c]pyridin-5(4H)-yl)methanone], the “PBMC 10 μM (% control)” value is 4.5 % control.

For `Cc1nc(-n2nnc3c2CCN(C(=O)c2cccc(C(F)(F)F)c2Cl)[C@@H]3C)ncc1F` (single isomer, unassigned) [Example 305, (R*)-(2-chloro-3-(trifluoromethyl)phenyl)(1-(5-fluoro-4-methylpyrimidin-2-yl)-4-methyl-6,7-dihydro-1H-[1,2,3]triazolo[4,5-c]pyridin-5(4H)-yl)methanone], the “PBMC 10 μM (% control)” value is 0.9 % control.

In the case of `C[C@H]1c2nnn(-c3ccn(CCF)n3)c2CCN1C(=O)c1cccc(C(F)(F)F)c1Cl` (single isomer, unassigned) [Example 172, (S*)-(2-Chloro-3-(trifluoromethyl)phenyl)(1-(1-(2-fluoroethyl)-1H-pyrazol-3-yl)-4-methyl-6,7-dihydro-1H-[1,2,3]triazolo[4,5-c]pyridin-5(4H)-yl)methanone], the “PBMC 10 μM (% control)” value is listed as −6.0 % control.

For `C[C@H]1c2nnn(-c3cccc(C(F)(F)F)n3)c2CCN1C(=O)c1cccc(C(F)(F)F)c1Cl` (single isomer, unassigned) [Example 380, (S*)-(2-chloro-3-(trifluoromethyl)phenyl)(4-methyl-1-(6-(trifluoromethyl)pyridin-2-yl)-6,7-dihydro-1H-[1,2,3]triazolo[4,5-c]pyridin-5(4H)-yl)methanone], the “PBMC 10 μM (% control)” value came to 113.7 % control.

For the molecule `CC1Cc2c(nnn2-c2ncc(F)cn2)CN1C(=O)c1cccc(C(F)(F)F)c1Cl` (centres unmarked) [Example 200, 5-{[2-Chloro-3-(trifluoromethyl)phenyl]carbonyl}-1-(5-fluoropyrimidin-2-yl)-6-methyl-4,5,6,7-tetrahydro-1H-[1,2,3]triazolo[4,5-c]pyridine], the “PBMC 10 μM (% control)” value is reported as 3.2 % control.

For the molecule `C[C@@H]1c2ncn(-c3ccc(F)cc3)c2CCN1C(=O)c1cccc(C(F)(F)F)c1Cl` (single isomer, unassigned) [Example 46, (4R*)-5-{[2-Chloro-3-(trifluoromethyl)phenyl]carbonyl}-1-(4-fluorophenyl)-4-methyl-4,5,6,7-tetrahydro-1H-imidazo[4,5-c]pyridine], the “PBMC 10 μM (% control)” value turned out to be 2.1 % control.

`CC1c2ncn(-c3ccccn3)c2CCN1C(=O)c1cccc(C(F)(F)F)c1F` (single isomer, unassigned) [Example 42, (4R*)-5-{[2-Fluoro-3-(trifluoromethyl)phenyl]carbonyl}-4-methyl-1-pyridin-2-yl-4,5,6,7-tetrahydro-1H-imidazo[4,5-c]pyridine]: the “PBMC 10 μM (% control)” value is given as 5.8 % control.

For `C[C@H]1Cc2c(nnn2-c2ccc(F)cc2)[C@H](C)N1C(=O)c1cccc(C(F)(F)F)c1Cl` [Example 285, (2-chloro-3-(trifluoromethyl)phenyl)((4S,6S)-1-(4-fluorophenyl)-4,6-dimethyl-6,7-dihydro-1H-[1,2,3]triazolo[4,5-c]pyridin-5(4H)-yl)methanone], the “PBMC 10 μM (% control)” value was −2.6 % control.

In the case of `Cc1cccc(-n2nnc3c2CCN(C(=O)c2cccc(Cl)c2Cl)[C@@H]3C)n1` (single isomer, unassigned) [Example 389, (R*)-(2,3-dichlorophenyl)(4-methyl-1-(6-methylpyridin-2-yl)-6,7-dihydro-1H-[1,2,3]triazolo[4,5-c]pyridin-5(4H)-yl)methanone], the “PBMC 10 μM (% control)” value turned out to be 88.9 % control.

Regarding `CC1c2nnn(-c3ncccn3)c2CCN1C(=O)c1ccc(Cl)cc1Cl` (centres unmarked) [Example 283, (2,4-dichlorophenyl)(4-methyl-1-(pyrimidin-2-yl)-6,7-dihydro-1H-[1,2,3]triazolo[4,5-c]pyridin-5(4H)-yl)methanone], the “PBMC 10 μM (% control)” value was −6.3 % control.

Regarding `C[C@@H]1Cc2c(nnn2-c2cc(F)ccn2)CN1C(=O)c1cccc(C(F)(F)F)c1Cl` (single isomer, unassigned) [Example 198, (6R*)-5-{[2-Chloro-3-(trifluoromethyl)phenyl]carbonyl}-1-(4-fluoropyridin-2-yl)-6-methyl-4,5,6,7-tetrahydro-1H-[1,2,3]triazolo[4,5-c]pyridine], the “PBMC 10 μM (% control)” value was 1.3 % control.

For `Cc1cc(C)nc(-n2nnc3c2CCN(C(=O)c2cccc(Cl)c2Cl)C3C)n1` (centres unmarked) [Example 179, (2,3-dichlorophenyl)(1-(4,6-dimethylpyrimidin-2-yl)-4-methyl-6,7-dihydro-1H-[1,2,3]triazolo[4,5-c]pyridin-5(4H)-yl)methanone], the “PBMC 10 μM (% control)” value is reported as −4.3 % control.

Take `C[C@H]1Cc2c(nnn2-c2ncccc2F)CN1C(=O)c1cccc(Cl)c1Cl` (single isomer, unassigned) [Example 166, (6S*)-5-[(2,3-Dichlorophenyl)carbonyl]-1-(3-fluoropyridin-2-yl)-6-methyl-4,5,6,7-tetrahydro-1H-[1,2,3]triazolo[4,5-c]pyridine]: the “PBMC 10 μM (% control)” value turned out to be 0.6 % control.

Regarding `C[C@H]1c2nnn(-c3cncnc3)c2CCN1C(=O)c1cccc(C(F)(F)F)c1Cl` [Example 333, (S)-(2-chloro-3-(trifluoromethyl)phenyl)(4-methyl-1-(pyrimidin-5-yl)-6,7-dihydro-1H-[1,2,3]triazolo[4,5-c]pyridin-5(4H)-yl)methanone], the “PBMC 10 μM (% control)” value amounted to 6.9 % control.

With `CC1CN(C(=O)c2cccc(C(F)(F)F)c2Cl)C(C)c2nnn(-c3ccc(F)cc3)c21` (centres unmarked) [Example 238, (2-Chloro-3-(trifluoromethyl)phenyl)(1-(4-fluorophenyl)-4,7-dimethyl-6,7-dihydro-1H-[1,2,3]triazolo[4,5-c]pyridin-5(4H)-yl)methanone], the “PBMC 10 μM (% control)” value is −4.1 % control.

The assay is the same for the next values; noted with them: test compound 10 μM, LPS 30 ng/ml + 0.5 mM Bz-ATP.
On to `Cc1ccnc(-n2nnc3c2CCN(C(=O)c2cccc(C(F)(F)F)c2Cl)[C@@H]3C)c1` (single isomer, unassigned) [Example 185, (R*)-(2-chloro-3-(trifluoromethyl)phenyl)(4-methyl-1-(4-methylpyridin-2-yl)-6,7-dihydro-1H-[1,2,3]triazolo[4,5-c]pyridin-5(4H)-yl)methanone], for which the “PBMC 10 μM (% control)” value was −3.7 % control.

`C[C@@H]1c2ncn(-c3ccc(F)cc3)c2CCN1C(=O)c1cccc(C(F)(F)F)c1Cl` (single isomer, unassigned) [Example 46, (4R*)-5-{[2-Chloro-3-(trifluoromethyl)phenyl]carbonyl}-1-(4-fluorophenyl)-4-methyl-4,5,6,7-tetrahydro-1H-imidazo[4,5-c]pyridine]: the “PBMC 10 μM (% control)” value is 2.1 % control.

Take `CC1c2ncn(-c3ccccn3)c2CCN1C(=O)c1cccc(C(F)(F)F)c1F` (single isomer, unassigned) [Example 42, (4R*)-5-{[2-Fluoro-3-(trifluoromethyl)phenyl]carbonyl}-4-methyl-1-pyridin-2-yl-4,5,6,7-tetrahydro-1H-imidazo[4,5-c]pyridine]: the “PBMC 10 μM (% control)” value turned out to be 5.8 % control.

For the origin of these results see patent US10112937B2, “P2X7 modulators and methods of use” (Janssen Pharmaceutica NV, priority 2013, dated 2018).
